Our source for the IC50 values is patent publication US12398154B2, “Azaquinazoline pan-KRas inhibitors” (Mirati Therapeutics, Inc., priority 2020, dated 2025).

In general, IC50 refers to the midpoint of a concentration-inhibition curve.

One experiment deals with KRas G12D (Homo sapiens, UniProt P01116, G12D). Nature of the experiment: biochemical.
A further experiment addresses KRas G12V (Homo sapiens, UniProt P01116, G12V). Description: biochemical.
The target in another experiment is KRas G12R (Homo sapiens, UniProt P01116, G12R). Description: biochemical.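 Note: TR-FRET displacement assay of compound binding to KRas, read after one hour at room temperature, potency from a four-parameter fit of percent-of-control values.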
Sequence of KRas G12R (P01116 1-169 isoform P01116-2 G12R): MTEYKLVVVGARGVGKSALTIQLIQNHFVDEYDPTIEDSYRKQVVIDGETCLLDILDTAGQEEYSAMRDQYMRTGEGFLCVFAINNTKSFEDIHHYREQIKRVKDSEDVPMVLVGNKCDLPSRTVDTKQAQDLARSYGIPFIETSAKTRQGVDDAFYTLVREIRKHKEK
For another experiment, the system named is pERK in ASPC1 cells. Description: Inhibition of KRas phosphorylation of ERK (Cisbio HTRF pERK assay). As to conditions: Homo sapiens, ASPC1, read-out: Inhibition (HTRF IC50) of KRas-mediated Phosphorylation of ERK, AsPC-1. In general terms: Time-resolved FRET reads energy transfer from a long-lived donor to a nearby acceptor.
Another experiment has as its system pERK in H727 cells. Described as above. As to conditions: Homo sapiens, NCI-H727, read-out: Inhibition (HTRF IC50) of KRas-mediated Phosphorylation of ERK, H727.
For another experiment, the target named is KRas G12A (Homo sapiens, UniProt P01116, G12A). Description: biochemical.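 Note: binding to KRas measured by TR-FRET displacement after one hour at room temperature, IC50 from a four-parameter fit of percent-of-control values.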
Sequence of KRas G12A (P01116 1-169 isoform P01116-2 G12A): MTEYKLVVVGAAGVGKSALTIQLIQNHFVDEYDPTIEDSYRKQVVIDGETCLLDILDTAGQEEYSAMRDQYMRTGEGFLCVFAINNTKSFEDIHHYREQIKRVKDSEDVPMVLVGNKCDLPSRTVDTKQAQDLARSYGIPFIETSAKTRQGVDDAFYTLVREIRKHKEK
The target of a further experiment is KRas G12S (Homo sapiens, UniProt P01116, G12S). Nature of the experiment: biochemical.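 Note: TR-FRET displacement binding to KRas, read after one hour incubation at room temperature, IC50 from four-parameter fit of percent of control.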
Sequence of KRas G12S (P01116 1-169 isoform P01116-2 G12S): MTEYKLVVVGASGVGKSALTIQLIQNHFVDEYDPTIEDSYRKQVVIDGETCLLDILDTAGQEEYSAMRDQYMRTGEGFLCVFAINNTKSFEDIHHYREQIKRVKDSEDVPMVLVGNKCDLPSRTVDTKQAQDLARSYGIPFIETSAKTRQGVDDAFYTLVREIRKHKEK
The next experiment concerns the target KRas G12C (Homo sapiens, UniProt P01116, G12C). Description: biochemical.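 Note: binding to KRas assessed by TR-FRET displacement after one hour incubation at room temperature, potency fitted from percent-of-control values.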
A further experiment deals with KRas WT (Homo sapiens, UniProt P01116). Description: biochemical.
Sequence of KRas WT (P01116 1-169 isoform P01116-2): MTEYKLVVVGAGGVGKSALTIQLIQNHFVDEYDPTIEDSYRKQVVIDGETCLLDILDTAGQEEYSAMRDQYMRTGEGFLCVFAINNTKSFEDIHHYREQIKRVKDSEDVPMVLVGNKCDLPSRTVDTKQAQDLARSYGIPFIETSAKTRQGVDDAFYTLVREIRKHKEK

Sequence of KRas G12C (P01116 1-169 isoform P01116-2 G12C): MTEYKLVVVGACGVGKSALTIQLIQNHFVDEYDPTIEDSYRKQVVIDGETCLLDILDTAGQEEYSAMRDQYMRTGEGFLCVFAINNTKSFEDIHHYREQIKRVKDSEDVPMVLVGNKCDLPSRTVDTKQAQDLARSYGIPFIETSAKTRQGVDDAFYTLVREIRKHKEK
Sequence of KRas G12D (P01116 1-169 isoform P01116-2 G12D): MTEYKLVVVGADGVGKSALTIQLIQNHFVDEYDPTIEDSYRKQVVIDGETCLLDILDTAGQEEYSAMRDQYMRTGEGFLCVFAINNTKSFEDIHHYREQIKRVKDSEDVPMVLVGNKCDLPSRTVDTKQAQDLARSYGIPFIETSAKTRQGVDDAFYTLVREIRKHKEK
Sequence of KRas G12V (P01116 1-169 isoform P01116-2 G12V): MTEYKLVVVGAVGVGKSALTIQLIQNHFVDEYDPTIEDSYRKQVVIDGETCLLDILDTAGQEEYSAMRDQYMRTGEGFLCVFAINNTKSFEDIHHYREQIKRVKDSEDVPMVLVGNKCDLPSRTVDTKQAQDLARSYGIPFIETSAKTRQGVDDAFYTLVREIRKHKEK

On to `Cc1cc2[nH]ncc2c(-c2ncc3c(N4CCCC5(CNC(=O)C5)C4)nc(OCC45CCCN4CCC5)nc3c2F)c1C` (stereo not shown) [Example 26, 7-(7-(5,6-dimethyl-1H-indazol-4-yl)-8-fluoro-2-((hexahydro-1H-pyrrolizin-7a-yl)methoxy)pyrido[4,3-d]pyrimidin-4-yl)-2,7-diazaspiro[4.5]decan-3-one], for which the IC50 at KRas G12D was 0.845 µM; at KRas G12V, 1.26 µM; on KRas G12R it was 2.32 µM; with pERK in ASPC1 cells, at least 10 µM; in the experiment on pERK in H727 cells, at least 10 µM.

For the molecule `CCc1c(F)ccc2cc(O)cc(-c3ncc4c(N(C)CC5CC(=O)N5)nc(OC[C@@]56CCCN5C[C@H](F)C6)nc4c3F)c12` (stereo partly shown) [Example 384], the IC50 was 0.038 µM against KRas G12D; 0.012 µM at KRas G12V; 0.032 µM on KRas G12R; at least 10 µM with pERK in ASPC1 cells; at least 10 µM in the experiment with pERK in H727 cells.

Turning to `O=C1CC2(CCCN(c3nc(OCC45CCCN4CCC5)nc4c(F)c(-c5cccc6cccc(CCF)c56)ncc34)C2)N1` (stereo not shown) [Example 470, 6-(8-fluoro-7-(8-(2-fluoroethyl)naphthalen-1-yl)-2-((hexahydro-1H-pyrrolizin-7a-yl)methoxy)pyrido[4,3-d]pyrimidin-4-yl)-1,6-diazaspiro[3.5]nonan-2-one], the half-maximal inhibitory concentration (IC50) at KRas G12D was 0.406 µM; against KRas G12V it was 0.355 µM; against KRas G12R, 0.503 µM; against KRas G12A, 0.347 µM; against KRas G12S, 0.341 µM; at KRas G12C it was 0.348 µM. At KRas WT, this molecule returned a 50% inhibitory concentration (IC50) of 0.475 µM.

`Cc1cc2[nH]ncc2c(-c2ncc3c(N4CCCC(C)(O)C4)nc(OC[C@@]45CCCN4C[C@H](F)C5)nc3c2F)c1C` (stereo partly shown) [Example 471]: the IC50 against KRas G12D turned out to be 0.309 µM; against KRas G12V, 0.427 µM; on KRas G12R, 1.07 µM; at KRas G12A it was 0.332 µM; on KRas G12S, 0.391 µM; on KRas G12C, 0.459 µM. Moreover, the half-inhibitory concentration (IC50) against KRas WT amounted to 0.362 µM.

As to `Fc1c(-c2cccc3cccc(Cl)c23)ncc2c(NCCCOC(F)F)nc(OCC34CCCN3CCC4)nc12` [Example 474, 7-(8-chloronaphthalen-1-yl)-N-(3-(difluoromethoxy)propyl)-8-fluoro-2-((tetrahydro-1H-pyrrolizin-7a(5H)-yl)methoxy)pyrido[4,3-d]pyrimidin-4-amine], the half-maximal inhibitory concentration (IC50) against KRas G12D was determined as 8.6 µM; against KRas G12V it was 1.75 µM; at KRas G12R, 3.63 µM; on KRas G12A, 2.95 µM; on KRas G12S it was 3.45 µM; on KRas G12C it was 2.39 µM. For the same molecule, the half-inhibitory concentration (IC50) against KRas WT stood at 6.17 µM.

On to `NC(=O)C(O)CNc1nc(OCC23CCCN2CCC3)nc2c(F)c(-c3cccc4cccc(Cl)c34)ncc12` (stereo not shown) [Example 475, 3-((7-(8-chloronaphthalen-1-yl)-8-fluoro-2-((tetrahydro-1H-pyrrolizin-7a(5H)-yl)methoxy)pyrido[4,3-d]pyrimidin-4-yl)amino)-2-hydroxypropanamide], for which the 50% inhibitory concentration (IC50) was 8.55 µM against KRas G12D; 1.46 µM on KRas G12V; 2.62 µM against KRas G12R; 3.68 µM against KRas G12A; 2.75 µM against KRas G12S; 2.75 µM against KRas G12C. At KRas WT, this molecule showed a 50% inhibitory concentration (IC50) of 4.6 µM.

In the case of `CCc1c(F)ccc2cc(O)cc(-c3ncc4c(NCC5CNC5=O)nc(OC[C@@]56CCCN5C[C@H](F)C6)nc4c3F)c12` (stereo partly drawn) [Example 485, 3-(((7-(8-ethyl-7-fluoro-3-hydroxynaphthalen-1-yl)-8-fluoro-2-(((2R,7aS)-2-fluorotetrahydro-1H-pyrrolizin-7a(5H)-yl)methoxy)pyrido[4,3-d]pyrimidin-4-yl)amino)methyl)azetidin-2-one], the IC50 was 0.009 µM against KRas G12D; at most 0.002 µM at KRas G12V; 0.003 µM against KRas G12R; 6.62 µM in the experiment on pERK in ASPC1 cells; 1.22 µM with pERK in H727 cells.

Turning to `CCc1c(F)ccc2cc(O)cc(-c3ncc4c(N5C[C@H]6C[C@@H](C5)[C@H](CO)[C@H]6O)nc(OC[C@@]56CCCN5C[C@H](F)C6)nc4c3F)c12` [Example 486, (1 R,5R,6S,7R)-3-(7-(8-ethyl-7-fluoro-3-hydroxynaphthalen-1-yl)-8-fluoro-2-(((2R,7aS)-2-fluorohexahydro-1H-pyrrolizin-7a-yl)methoxy)pyrido[4,3-d]pyrimidin-4-yl)-7-(hydroxymethyl)-3-azabicyclo[3.2.1]octan-6-ol], the half-inhibitory concentration (IC50) is 0.336 µM against KRas G12D; 0.17 µM at KRas G12V; 0.186 µM against KRas G12R; at least 10 µM in the experiment on pERK in ASPC1 cells; at least 10 µM in the experiment with pERK in H727 cells.

On to `CCc1c(F)ccc2cc(O)cc(-c3ncc4c(N5CCC6C(=O)NC(=O)C6C5)nc(OC[C@@]56CCCN5C[C@H](F)C6)nc4c3F)c12` (stereo partly drawn) [Example 487, 5-(7-(8-ethyl-7-fluoro-3-hydroxynaphthalen-1-yl)-8-fluoro-2-(((2R,7aS)-2-fluorohexahydro-1H-pyrrolizin-7a-yl)methoxy)pyrido[4,3-d]pyrimidin-4-yl)hexahydro-1H-pyrrolo[3,4-c]pyridine-1,3(2H)-dione], for which the IC50 at KRas G12D was 0.014 µM; at KRas G12V it was 0.005 µM; at KRas G12R, 0.006 µM; in the experiment on pERK in ASPC1 cells, at least 10 µM; in the experiment with pERK in H727 cells, 4.99 µM.

In the case of `CCc1c(F)ccc2cc(O)cc(-c3ncc4c(N(C)CC5CNS(=O)(=O)N5)nc(OC[C@@]56CCCN5C[C@H](F)C6)nc4c3F)c12` (stereo partly shown) [Example 495], the IC50 on KRas G12D is 0.008 µM; at KRas G12V it was at most 0.002 µM; on KRas G12R, 0.007 µM; in the experiment with pERK in ASPC1 cells, 1.35 µM; in the experiment with pERK in H727 cells it was 1.82 µM.

`CCc1c(F)ccc2cc(O)cc(-c3ncc4c(N5CCCC6(CCS(=N)(=O)C6)C5)nc(OC[C@@]56CCCN5C[C@H](F)C6)nc4c3F)c12` (stereo partly drawn) [Example 508, 7-(7-(8-ethyl-7-fluoro-3-hydroxynaphthalen-1-yl)-8-fluoro-2-(((2R,7aS)-2-fluorohexahydro-1H-pyrrolizin-7a-yl)methoxy)pyrido[4,3-d]pyrimidin-4-yl)-2-imino-2-thia-7-azaspiro[4.5]decane 2-oxide]: the concentration for half-maximal inhibition (IC50) against KRas G12D was found to be 0.005 µM; on KRas G12V it was 0.012 µM; against KRas G12R, 0.014 µM; in the experiment with pERK in ASPC1 cells, 1.55 µM; in the experiment with pERK in H727 cells, 2.19 µM.

For the molecule `O=S1(=O)NC[C@@]2(CCCN(c3nc(OC[C@@]45CCCN4C[C@H](F)C5)nc4c(F)c(-c5cc(O)cc6ccc(F)c(Cl)c56)ncc34)C2)N1` [Example 516, (S)-7-(7-(8-chloro-7-fluoro-3-hydroxynaphthalen-1-yl)-8-fluoro-2-(((2R,7aS)-2-fluorotetrahydro-1H-pyrrolizin-7a(5H)-yl)methoxy)pyrido[4,3-d]pyrimidin-4-yl)-2-thia-1,3,7-triazaspiro [4.5]decane2,2-dioxide], the values for the IC50 with pERK in ASPC1 cells and with pERK in H727 cells were 9.32 µM and 5.69 µM, respectively.

Take `O=C1CC2(CCCN(c3nc(OCC45CCCN4CCC5)nc4c(F)c(-c5cc(O)cc(Cl)c5C5CC5)ncc34)C2)N1` (stereo not shown) [Example 518, 6-(7-(3-chloro-2-cyclopropyl-5-hydroxyphenyl)-8-fluoro-2-((tetrahydro-1H-pyrrolizin-7a(5H)-yl)methoxy)pyrido[4,3-d]pyrimidin-4-yl)-1,6-diazaspiro[3.5]nonan-2-one]: the IC50 on KRas G12D was at most 0.002 µM; at KRas G12V, at most 0.002 µM; against KRas G12R it was at most 0.002 µM; in the experiment on pERK in ASPC1 cells, at least 10 µM; in the experiment on pERK in H727 cells, 9.21 µM.

Regarding `O=C1NC(=O)C2CN(c3nc(OCC45CCCN4CCC5)nc4c(F)c(-c5cc(O)cc(Cl)c5C5CC5)ncc34)CC12` (stereo not shown) [Example 519, 5-(7-(3-chloro-2-cyclopropyl-5-hydroxyphenyl)-8-fluoro-2-((tetrahydro-1H-pyrrolizin-7a(5H)-yl)methoxy)pyrido[4,3-d]pyrimidin-4-yl)tetrahydropyrrolo[3,4-c]pyrrole-1,3(2H,3aH)-dione], the half-maximal inhibitory concentration (IC50) against KRas G12D was at most 0.002 µM; against KRas G12V, at most 0.002 µM; against KRas G12R, at most 0.002 µM; with pERK in ASPC1 cells it was at least 10 µM; in the experiment with pERK in H727 cells it was at least 10 µM.

With `Cc1cc2[nH]ncc2c(-c2ncc3c(N4CCC[C@@](C)(O)C4)nc(OCC4(CN(C)C)CC4)nc3c2F)c1C` [Example 520, (3R)-1-(7-(5,6-dimethyl-1H-indazol-4-yl)-2-((1-((dimethylamino)methyl)cyclopropyl)methoxy)-8-fluoropyrido[4,3-d]pyrimidin-4-yl)-3-methylpiperidin-3-ol], the IC50 on KRas G12D is 0.692 µM; on KRas G12V it was 0.614 µM; at KRas G12R, 1.75 µM; in the experiment on pERK in ASPC1 cells, at least 10 µM; in the experiment with pERK in H727 cells, at least 10 µM.

`Cc1cc2[nH]ncc2c(-c2ncc3c(N4CCCC5(CNS(=O)(=O)N5)C4)nc(OCC45CCCN4CCC5)nc3c2F)c1C` (stereo not shown) [Example 521, 7-(7-(5,6-dimethyl-1H-indazol-4-yl)-8-fluoro-2-((hexahydro-1H-pyrrolizin-7a-yl)methoxy)pyrido[4,3-d]pyrimidin-4-yl)-2-thia-1,3,7-triazaspiro[4.5]decane 2,2-dioxide]: the IC50 is 0.004 µM on KRas G12D; at most 0.002 µM at KRas G12V; 0.003 µM against KRas G12R; at least 10 µM in the experiment on pERK in ASPC1 cells; at least 10 µM with pERK in H727 cells.
